US8962244B2, “Compounds for modulating RNA binding proteins and uses therefor” (University of Massachusetts, priority 2009, dated 2015)
“And” between values parts separate entries of the source, which are not always exact repeats. Equal entries are not always repeated.

Tests used:
MEX-5 [1] = target: T1, MEX-5 (Caenorhabditis elegans, UniProt Q9XUB2); test: Fluorescence polarization screening of MEX-5 binding to fluorescein-labeled TCR2 RNA; settings: for remaining activity at 192 µM: 192 μM test compound, score = polarization relative to no-drug and no-protein controls, 0.25 = 75% inhibition, lowest score = greatest inhibition, read-out: MEX-5 score; for IC50: further screening as described above (fluorescence polarization), dose response
T1 construct: The fragment of mex-5 containing the TZF domain (amino acids 236-350) was amplified; made in house; host or cells: Escherichia coli JM109
T1 sequence (Q9XUB2 236-350): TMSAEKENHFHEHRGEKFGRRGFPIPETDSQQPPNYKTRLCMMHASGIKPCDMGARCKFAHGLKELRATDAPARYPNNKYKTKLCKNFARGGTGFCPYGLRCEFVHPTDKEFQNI
In short: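 Fluorescence polarization of 2 nM 3′-fluorescein-labelled TCR2 RNA bound by 120 nM MBP-MEX-5 TZF domain (aa 236–350), at sub-saturating binding. Test compounds at 192 μM in 50 mM Tris-HCl pH 8.0, 100 mM NaCl, 0.01% IGEPAL, 0.01 mg/mL yeast tRNA, 100 μM Zn(OAc)2; no-protein and no-compound controls.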

POS-1 [2] = target: T2, POS-1 (Caenorhabditis elegans, UniProt G5EF15); test: Fluorescence polarization screening of POS-1 binding to fluorescein-labeled BMF018 RNA; settings: for remaining activity at 192 µM: 192 μM test compound, score = polarization relative to no-drug and no-protein controls, 0.25 = 75% inhibition, lowest score = greatest inhibition, read-out: POS-1 score; for IC50: further screening as described above (fluorescence polarization), dose response
T2 construct: 6-his tag (N); made in house; host or cells: E. coli BL21 (DE3) Gold
T2 sequence (G5EF15 80-180): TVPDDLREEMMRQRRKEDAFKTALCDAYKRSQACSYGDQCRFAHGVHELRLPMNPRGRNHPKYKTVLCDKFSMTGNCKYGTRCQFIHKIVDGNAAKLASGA

POS-1 [3] = target: T2, POS-1; test: Dose response gel shift assay, POS-1 with MEX-3 UTR fragment RNA; assay type: binding; settings: 120 nM POS-1, 2-3 nM fluorescein labeled MEX-3 UTR fragment RNA
Protocol: (§1) A further dose response assay was performed on select compounds of the invention as described below. A sub-saturating concentration of MEX-5 or POS-1 (120 nM) was equilibrated with limiting fluorescein labeled RNA (2-3 nM, TCR2 RNA or MEX-3 UTR fragment RNA respectively) in the presence of varying concentrations of compound. Following equilibration, the reactions were loaded onto a 5% slab polyacrylamide gel and subjected to electrophoresis for about 1 hour to separate protein-RNA complex from free RNA. The gel was scanned on a FUJI FLA-5000 imager, and the fraction of bound RNA determined by dividing the intensity of the bound RNA by the intensity of the bound RNA plus the free RNA. The […] was plotted as a function of compound concentration and fit to a sigmoidal dose response function in order to determine the IC50, the concentration that gives half maximal inhibition.

MEX-5 [4] = target: T1, MEX-5; test: Dose response gel shift assay, MEX-5 with TCR2 RNA; assay type: binding; settings: 120 nM MEX-5, 2-3 nM fluorescein labeled TCR2 RNA
Protocol: as §1

[5] = tested on: Caenorhabditis elegans N2 strain worms; test: C. elegans viability/sterility assay (gonad microinjection); assay type: in vivo
Protocol: Young adult worms with a single row of embryos were selected for microinjection. Each worm was mounted on a dried agarose padded coverslip in halocarbon oil. Varying concentrations of compound, or a DMSO control, were microinjected into each gonad arm of the worm using an inverted microscope with DIC optics. Injected worms were then allowed to recover for 2-3 hours at 15° C. Approximately 10-40 worms were injected per compound tested. Individual worms that survived microinjection were singled out onto new NGM agar plates and allowed to recover overnight at 15° C. The plates were moved to room temperature the next morning. At the end of the day, the adult worm was transferred to a new plate. The embryos laid on each plate were monitored for hatching and inspected for unusual phenotypes. Nematode fertility was estimated by counting the total number of progeny on both plates. Viability was estimated by monitoring the extent of hatching.

[6] = count per individual injected worm (Worm No. 1-6), Day 2

CC(=O)Oc1ccccc1-c1nc2s/c(=C3\C(=O)N(CC(N)=O)c4ccccc43)c(=O)n2n1 [C]
remaining activity at 192 µM (MEX-5 [1]): -2.09%
IC50 (MEX-5 [1]): 33 µM
remaining activity at 192 µM (POS-1 [2]): -2.48%
IC50 (POS-1 [2]): 7 µM
IC50 (POS-1 [3]): 5.1 µM
IC50 (MEX-5 [4]): 9.5 µM

Sc1nnc(COc2cccc3ccccc23)n1-c1ccccc1 [BO]
remaining activity at 192 µM (MEX-5 [1]): 19%
IC50 (MEX-5 [1]): 75 µM
IC50 (POS-1 [2]): 16 µM
IC50 (POS-1 [3]): 33 µM
IC50 (MEX-5 [4]): 120 µM

COc1nnc(-c2ccc(C)c(S(=O)(=O)NCC3CCCO3)c2)c2ccccc12 (stereo not drawn) [DD]
remaining activity at 192 µM (POS-1 [2]): 7.5%
IC50 (POS-1 [2]): 300 µM
IC50 (POS-1 [3]): 260 µM

COc1ccc(S(=O)(=O)Nc2ccccc2NS(=O)(=O)c2ccc(OC)cc2)cc1 [E]
remaining activity at 192 µM (MEX-5 [1]): -1.07%
IC50 (MEX-5 [1]): 1.5 µM
remaining activity at 192 µM (POS-1 [2]): -1.62%
IC50 (POS-1 [2]): 0.32 µM
IC50 (POS-1 [3]): 0.17 µM
IC50 (MEX-5 [4]): 2 µM
Day 1 Hatchlings ([5]; count per individual injected worm (Worm No. 1-6), Day 1): 11 and 34 and 2 and 6 and 4 and 67
Day 2 Embryos [5, 6]: 0
Day 2 Hatchlings [5, 6]: 0
Day 1 Embryos ([5]; count per individual injected worm (Worm No. 1-6), unhatched embryos on plate, Day 1): 1 and 0 (4×) and 2
Effect on worm fertility ([5]; microinjection into each gonad arm, compared with DMSO controls): may sterilize worms at a stage prior to fertilization

CCS(=O)(=O)Nc1ccccc1NS(=O)(=O)CC [BR]
remaining activity at 192 µM (MEX-5 [1]): 19.9%
IC50 (MEX-5 [1]): 39 µM
IC50 (POS-1 [2]): 820 µM
IC50 (POS-1 [3]): 150 µM
IC50 (MEX-5 [4]): 78 µM
